Laboratory results from US20250127913A1, “BIFUNCTIONAL FOLATE RECEPTOR BINDING COMPOUNDS” (LYCIA THERAPEUTICS, INC., priority 2021, published 2025).

Experiments:
[1] = target: TNFα and streptavidin immobilized FOL2R (Homo sapiens (Human), UniProt P01375+P14207); assay: Ternary complex SPR assay; type: binding; details: 10 nM compound, max response normalized to expected response; for TC 60 nM taggless TNF normalized: 60 nM untagged TNF; for TC 300 nM- tagless TNF Normalized: 300 nM untagged TNF; for TC 150 nM- tagless TNF Normalized: 150 nM untagged TNF
Chain of TNFα and streptavidin immobilized FOL2R (P14207 17-230): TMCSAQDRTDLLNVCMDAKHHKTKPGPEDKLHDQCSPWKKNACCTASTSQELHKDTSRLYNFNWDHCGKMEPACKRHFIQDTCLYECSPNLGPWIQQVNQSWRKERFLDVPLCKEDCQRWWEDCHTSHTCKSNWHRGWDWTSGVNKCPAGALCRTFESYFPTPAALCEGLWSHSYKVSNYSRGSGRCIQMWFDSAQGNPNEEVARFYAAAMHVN
Chain of TNFα and streptavidin immobilized FOL2R (P01375 77-233): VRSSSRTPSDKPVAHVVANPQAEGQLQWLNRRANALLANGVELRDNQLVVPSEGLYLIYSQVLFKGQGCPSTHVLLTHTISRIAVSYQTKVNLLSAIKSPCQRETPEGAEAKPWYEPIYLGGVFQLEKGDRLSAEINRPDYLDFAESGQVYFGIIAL
Experimental: Folate receptor-TNFα ternary complex SPR assays were conducted on a Biacore 8K instrument (Cytiva) using biotinylated folate receptor beta (Acro Biosystems). Folate receptor was immobilized at -1800 RU on a streptavidin chip (Cytiva) in 10 mM HEPES pH 7.5, 150 mM NaCl, 0.05% Tween 20. Untagged TNF was preincubated with 10 nM compound for 6 hr in 10 mM HEPES pH 7.5, 150 mM NaCl, 0.05 Tween 20, 2% DMSO at 25° C. Samples were then injected over the folate receptor surface at 30 μl/min with an association time of 110 s and a dissociation time of 600 s. Surfaces were regenerated with 4 M MgCl2 at 30 μl/mm for 30 s. The maximum measured response was normalized by comparison to the maximum expected response for each compound.

TNFα = TNFα (Homo sapiens (Human), UniProt P01375); assay: TNFα binding assay (time-resolved FRET, biotinylated TNFα); details: 1 nM biotinylated TNFα, 80 nM probe, 16 hr incubation; read-out: TNF-HTRF-biotin
Chain of TNFα (P01375 77-233): as above
Experimental: TNFα binding was measured in black 96-well plates using a time-resolved FRET assay using a previously described fluorescence acceptor TNFα probe (Xiao et al J. Med. Chem. 2020). Biotinylated TNFα was purchased from Acro Biosystems. Binding reactions were conducted in 20 mM Hepes (pH 7.5) 10 mM MgCl2 0.015% Tween-20 0.05 mg/ml BSA 2% DMSO with 1 nM TNFα 0.5 nM Streptavidin-Tb and 80 nM probe. Test compounds were resuspended in DMSO and 3-fold serial dilutions were made at 100× final concentrations. Fluorescence was measured using λex=340 nm, λem=490, 520 nm on an SpectraMax M5e plate reader (Molecular Devices) after 16 hr incubation time. Dose responses were conducted in duplicate and normalized to the response with DMSO (high) and 100 nM (R)-3-(1-((3-chloro-7-fluoro-6-(2-(2-hydroxypropan-2-yl)pyrimidin-5-yl)-2-methyl-1,5-naphthyridin-4-yl)amino)ethyl)-4-fluorobenzonitrile (low) on each plate. IC50 values were determined by fitting to 4-parameter curves in GraphPad Prism.

folate receptor beta [2] = target: T1, folate receptor beta (Homo sapiens (Human), UniProt P14207); assay: Folate receptor SPR assay (biotinylated folate receptor beta on streptavidin chip); type: binding; details: for Rmax: biotinylated folate receptor beta on streptavidin chip; for kd / Kd / kon: multi-cycle kinetics, 25° C., 1:1 model; for Kd: read-out: FOLR2Biotin - SPR Kd; for kon: pH 7.5, read-out: ka
T1 sequence (P14207 17-255): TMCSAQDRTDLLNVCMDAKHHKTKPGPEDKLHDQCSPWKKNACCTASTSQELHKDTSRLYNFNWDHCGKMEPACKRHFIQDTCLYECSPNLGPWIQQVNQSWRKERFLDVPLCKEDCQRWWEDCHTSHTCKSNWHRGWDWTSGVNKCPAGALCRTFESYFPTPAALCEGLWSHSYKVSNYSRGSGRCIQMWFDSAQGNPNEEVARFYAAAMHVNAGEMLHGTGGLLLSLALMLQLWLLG
Experimental: Folate receptor SPR binding assays were conducted on a Biacore 8K instrument (Cytiva) using biotinylated folate receptor beta (Acro Biosystems). Briefly, folate receptor was immobilized at -550 RU on a streptavidin chip (Cytiva) in 10 mM HEPES pH 7.5, 150 mM NaCl, 0.05% Tween 20. Multi-cycle kinetic studies were conducted with 8 compound concentrations using 2-fold dilutions in 10 mM HEPES pH 7.5, 150 mM NaCl, 0.05% Tween 20, 2% DMSO at 25° C. A flow rate or 75 μl/mmn with an association time of 120 s and a dissociation time of 600 s were used. Surfaces were regenerated with 4 M MgCl2 at 30 μl/min for 30 s. Data were fit to a 1:1 model to determine the reported binding parameters.

folate receptor beta [3] = target: T1, folate receptor beta; assay: Folate receptor binding assay (fluorescence polarization); details: 2.5 nM folate receptor beta, 2 nM FR-Cy probe, 2 hr incubation; read-out: FOLR2-FP
Experimental: Folate receptor binding was measured in black 96-well plates using a fluorescence polarization assay. A fluorescent probe consisting of a folate analog linked to Cy5 (FR-Cy) was custom synthesized.
Test compounds were resuspended in DMSO and 3-fold serial dilutions were made from 300-0.015 μM (100× final concentrations). Binding reactions were conducted in 200 μl final volume in 20 mM Hepes (pH 7.5) 250 mM NaCl 0.0150 Tween-20 1% DMSO with 2.5 nM folate receptor beta (Acro Biosystems) and 2 nM probe. Fluorescence polarization was measured using λex=620 nm, λem=688 nm on an Envision plate reader (Perkin Elmer) after 2 hr incubation time. Dose responses were conducted in duplicate and normalized to the response with DMSO (high) and 1 μM folic acid (low) on each plate. IC50 values were determined by fitting to 4-parameter curves in GraphPad Prism.

| SMILES | TC 60 nM taggless TNF normalized [1] [%] | TC 300 nM- tagless TNF Normalized [1] [%] | IC50 (TNFα) [nM] | Rmax (folate receptor beta [2]) [RU] | kd (folate receptor beta [2]) [s⁻¹] | Kd (folate receptor beta [2]) [nM] | kon (folate receptor beta [2]) [M⁻¹ s⁻¹] | IC50 (folate receptor beta [3]) [nM] | TC 150 nM- tagless TNF Normalized [1] [%] |
| --- | --- | --- | --- | --- | --- | --- | --- | --- | --- |
| Cc1nc2cc(F)c(-c3cnc(N4CCN(C(=O)COCCOCCOCCOCCOCCOCCn5cc(CC[C@H](NC(=O)c6ccc(N(C)Cc7ccc8nc(N)[nH]c(=O)c8c7)cc6)C(=O)O)nn5)CC4)nc3)nc2c(N[C@H](C)c2cc(C#N)ccc2F)c1Cl [Compound I-85, (S)-2-(4-(((2-amino-4-oxo-3,4-dihydroquinazolin-6-yl)methyl)(methyl)amino)benzamido)-4-(1-(20-(4-(5-(7-chloro-8-(((R)-1-(5-cyano-2-fluorophenyl)ethyl)amino)-3-fluoro-6-methyl-1,5-naphthyridin-2-yl)pyrimidin-2-yl)piperazin-1-yl)-20-oxo-3,6,9,12,15,18-hexaoxaicosyl)-1H-1,2,3-triazol-4-yl)butanoic acid] | 9.7 | 15.1 | 13 | 11.9 | 0.00112 | 0.088 | 1.27e+07 | 12 |  |
| Cc1nc2cc(F)c(-c3cnc(N4CCN(C(=O)COCCn5cc(COCCOCCOCCOCCNC(=O)CC[C@H](NC(=O)c6ccc(SCCc7cc8c(=O)[nH]c(N)nc8[nH]7)cc6)C(=O)O)nn5)CC4)nc3)nc2c(N[C@H](C)c2cc(C#N)ccc2F)c1Cl [Compound I-98, (S)-18-(4-((2-(2-amino-4-oxo-4,7-dihydro-3H-pyrrolo[2,3-d]pyrimidin-6-yl)ethyl)thio)benzamido)-1-(1-(2-(2-(4-(5-(7-chloro-8-(((R)-1-(5-cyano-2-fluorophenyl)ethyl)amino)-3-fluoro-6-methyl-1,5-naphthyridin-2-yl)pyrimidin-2-yl)piperazin-1-yl)-2-oxoethoxy)ethyl)-1H-1,2,3-triazol-4-yl)-15-oxo-2,5,8,11-tetraoxa-14-azanonadecan-19-oic acid] |  | 19.4 | 19 | 14.8 | 0.000774 | 0.172 | 4.49e+06 | 133 | 16.7 |
| Cc1nc2cc(F)c(-c3cnc(N4CCN(C(=O)COCCn5cc(CN(C)CCOCCOCCOCCNC(=O)CC[C@H](NC(=O)c6ccc(NCc7cnc8nc(N)nc(O)c8n7)cc6)C(=O)O)nn5)CC4)nc3)nc2c(N[C@H](C)c2cc(C#N)ccc2F)c1Cl [Compound I-94, (S)-18-(4-(((2-amino-4-hydroxypteridin-6-yl)methyl)amino)benzamido)-1-(1-(2-(2-(4-(5-(7-chloro-8-(((R)-1-(5-cyano-2-fluorophenyl)ethyl)amino)-3-fluoro-6-methyl-1,5-naphthyridin-2-yl)pyrimidin-2-yl)piperazin-1-yl)-2-oxoethoxy)ethyl)-1H-1,2,3-triazol-4-yl)-2-methyl-15-oxo-5,811-trioxa-2,14-diazanonadecan-19-oic acid] |  | 18.5 | 22 | 15.4 | 0.000169 | 0.0194 | 8.72e+06 | 9.3 | 16.3 |
| Cc1nc2cc(F)c(-c3cnc(N4CCN(C(=O)COCCn5cc(COCCOCCOCCN6CCN(C(=O)CC[C@H](NC(=O)c7ccc(NCc8cnc9nc(N)nc(O)c9n8)cc7)C(=O)O)CC6)nn5)CC4)nc3)nc2c(N[C@H](C)c2cc(C#N)ccc2F)c1Cl [Compound I-95, (S)-2-(4-(((2-amino-4-hydroxypteridin-6-yl)methyl)amino)benzamido)-5-(4-(2-(2-(2-((1-(2-(2-(4-(5-(7-chloro-8-(((R)-1-(5-cyano-2-fluorophenyl)ethyl)amino)-3-fluoro-6-methyl-1,5-naphthyridin-2-yl)pyrimidin-2-yl)piperazin-1-yl)-2-oxoethoxy)ethyl)-1H-1,2,3-triazol-4-yl)methoxy)ethoxy)ethoxy)ethyl)piperazin-1-yl)-5-oxopentanoic acid] |  | 18.6 | 26 | 14.8 | 0.000337 | 0.0215 | 1.56e+07 | 11 | 17.3 |
| Cc1nc2cc(F)c(-c3cnc(N4CCN(C(=O)COCCOCCN5CCC6(CC5)CCN(C(=O)CC[C@H](NC(=O)c5ccc(NCc7cnc8nc(N)nc(O)c8n7)cc5)C(=O)O)CC6)CC4)nc3)nc2c(N[C@H](C)c2cc(C#N)ccc2F)c1Cl [Compound I-84, (S)-2-(4-(((2-amino-4-hydroxypteridin-6-yl)methyl)amino)benzamido)-5-(9-(2-(2-(2-(4-(5-(7-chloro-8-(((R)-1-(5-cyano-2-fluorophenyl)ethyl)amino)-3-fluoro-6-methyl-1,5-naphthyridin-2-yl)pyrimidin-2-yl)piperazin-1-yl)-2-oxoethoxy)ethoxy)ethyl)-3,9-diazaspiro[5.5]undecan-3-yl)-5-oxopentanoic acid] | 10.8 | 17.3 | 9 | 19.7 | 0.000153 | 0.0059 | 2.59e+07 | 6.9 | 17.4 |
| Cc1nc2cc(F)c(-c3cnc(N4CCN(C(=O)COCCn5cc(COCCOCCOCCOCCNC(=O)CCCNC(=O)c6ccc(NCc7cnc8nc(N)nc(O)c8n7)cc6)nn5)CC4)nc3)nc2c(N[C@H](C)c2cc(C#N)ccc2F)c1Cl [Compound I-96, (R)-4-(((2-amino-4-hydroxypteridin-6-yl)methyl)amino)-N-(1-(1-(2-(2-(4-(5-(7-chloro-8-((1-(5-cyano-2-fluorophenyl)ethyl)amino)-3-fluoro-6-methyl-1,5-naphthyridin-2-yl)pyrimidin-2-yl)piperazin-1-yl)-2-oxoethoxy)ethyl)-1H-1,2,3-triazol-4-yl)-15-oxo-2,5,8,11-tetraoxa-14-azaoctadecan-18-yl)benzamide] | 12.3 | 19.2 | 56 | 17.1 | 0.00129 | 0.101 | 1.27e+07 | 20 | 17.1 |
| Cc1nc2cc(F)c(-c3cnc(N4CCN(C(=O)COCCOCCOCCOCCOCCOCCn5cc(CC[C@H](NC(=O)c6ccc(CCc7ccc8nc(N)nc(O)c8c7)cc6)C(=O)O)nn5)CC4)nc3)nc2c(N[C@H](C)c2cc(C#N)ccc2F)c1Cl [Compound I-82, (S)-2-(4-(2-(2-amino-4-hydroxyquinazolin-6-yl)ethyl)benzamido)-4-(1-(20-(4-(5-(7-chloro-8-(((R)-1-(5-cyano-2-fluorophenyl)ethyl)amino)-3-fluoro-6-methyl-1,5-naphthyridin-2-yl)pyrimidin-2-yl)piperazin-1-yl)-20-oxo-3,6,9,12,15,18-hexaoxaicosyl)-1H-1,2,3-triazol-4-yl)butanoic acid] | 15.7 | 24.9 | 19 | 14.5 | 0.000591 | 0.031 | 1.91e+07 | 4.9 |  |
